Entries after “also recorded” stand apart in the source; their conditions may differ.
Experiments:
INS-1 cells [1] = assay: INS-1 cell toxicity (CCK-8 cell viability); conditions: for Cell viability (%): 24 hours, INS-1 cells, CCK-8; for toxicity against INS-1 cells: summary of Tables 1 and 2, up to 5 μg/mL or 5 μM
Description: Cell line INS-1 (Biohermes, Shanghai, China) is a […] insulinoma species and has insulin secretion ability. INS-1 cells were cultured in RPMI1640 (Cellgro, Manassas, Va., USA) medium supplemented with 10% fetal bovine serum (FBS), 100 units/mL penicillin G, 100 μg/mL streptomycin, 10 mM HEPES, 2 mM L-glutamine, 1 mM sodium pyruvate and 0.05 mM 2-mercapto ethanol under a condition of a temperature of 37° C., 90% air, and 10% CO2. Among the above-mentioned components, reagents not mentioned by the manufacturer were purchased from Gibco BRL, Life Technologies. The cultured INS-1 cells were inoculated in each well of a 96-well plate in the number of 1×10^4 in a medium of 100 μL and cultured for 24 hours to stabilize the cells. Next, the ginger extract, fraction thereof, and single compounds were added to a specific concentration, followed by culturing for 24 hours. Next, 10 μL of a CCK-8 reagent (Dojindo Laboratories, Japan) was added to each well, followed by culturing at a temperature of 37° C. After 1 hour, cell viability was measured by measuring absorbance at a wavelength of 450 nm on a BIO-TEK (Winooski, Vt., USA) microplate reader. The specific concentrations of the ginger extract and a fraction thereof were set to 1 μg/m L, 2.5 μg/mL, and 5 μg/mL, and the specific concentrations of the single compound were set to 1 μM, 2.5 μM, and 5 μM. Cell viability in Tables 1 and 2 was calculated as follows. Cell viability (%)=A/B×100 A: absorbance of sample to which a reagent is […]

INS-1 cells [2] = assay: Glucose stimulated insulin secretion (GSIS) of INS-1 cell; format: cell-based, rat; conditions: for Stimulation index (SI): insulin secreted at 16.7 mM glucose divided by that at 3.3 mM glucose; for insulin secretion of INS-1 cells: summary in words of Tables 3 and 4
Description: Cell line INS-1 (Biohermes, Shanghai, China) is a […] insulinoma species and has insulin secretion ability. INS-1 cells were cultured in RPMI1640 (Cellgro, Manassas, Va., USA) medium supplemented with 10% fetal bovine serum (FBS), 100 units/mL penicillin G, 100 μg/mL streptomycin, 10 mM HEPES, 2 mM L-glutamine, 1 mM sodium pyruvate and 0.05 mM 2-mercapto ethanol under a condition of a temperature of 37° C., 90% air, and 10% CO2. Among the above-mentioned components, reagents not mentioned by the manufacturer were purchased from Gibco BRL, Life Technologies. 5×10^5 cultured INS-1 cells were inoculated in each well of the 12-well plate in the same medium of 2 mL and cultured for 24 hours under the same condition as described in Section (1) INS-1 cell culture to stabilize the cells. Then, 114 mM sodium chloride (NaCl), 4.4 mM potassium chloride (KCl), 1 mM magnesium sulfate (MgSO4), 1.28 mM calcium chloride (CaCl2)), 29.5 mM sodium hydrogen carbonate (NaHCO3), 10 mM HEPES; Gibco BRL Life Technologies), and 0.1% bovine serum albumin (BSA) were mixed, and the cells were washed twice with 2 mL of Krebs-Ringer buffer with a hydrogen ion concentration of pH 7.4. Thereafter, 2 mL of Krebs-Ringer buffer was added to the washed cells and incubated for 1 hour. Then, the ginger extract, each fraction, and each compound were incubated for 30 minutes in 1.8 mL of Krebs-Ringer buffer at a specific concentration. The specific concentrations of the ginger extract and a fraction thereof were set to 1 μg/m L, 2.5 μg/mL, and 5 μg/mL, and the specific concentrations of the single compound were set to 1 μM, 2.5 μM, and 5 μM. 0.2 mL of Krebs-Ringer buffers containing 33 mM and 167 mM glucose were each added to the wells and incubated for 1 hour. Thereafter, after centrifugation at 12,000 revolutions per minute (rpm) for 10 minutes at a temperature of 4° C., the supernatant was taken, and the amount of insulin was measured with a Rat insulin RIA kit (Gentaur Molecular Products, Belgium). The stimulation index (SI) is a value obtained by dividing a value measured at a high glucose concentration, that is, the amount of insulin secreted by stimulation of a 16.7 mM glucose concentration by a value measured at a low glucose concentration, that is, the amount of insulin secreted by stimulation of a 3.3 mM glucose concentration. As a positive control, gliclazide was used at concentrations of 2.5 μM, 5.0 μM, 10 μM, and 20 μM.

ICR mice = assay: Oral glucose tolerance test (OGTT); format: in vivo, mouse; conditions: 100 mg/kg oral 1 hour before glucose 2 g/Kg, caudal vein blood at 0-120 minutes, vs control and unprocessed/6-gingerol group
Description: ICR mice were used for OGTT experiments. ICR mice were fasted for 12 hours before the experiment, blood was collected from the caudal vein of mice that had been fasted for 12 hours, and the fasting blood glucose level was measured as the initial blood glucose level. Thereafter, experiments were conducted with a group administered with glucose (2 g/Kg) (control), a group administered with glucose and a raw ginger extract (100 mg/kg, not processed), and a group administered with a microwave-processed ginger product (100 mg/kg, processed). After oral administration for each concentration, glucose was orally administered 1 hour later, and measurement was performed by using a blood glucose meter from the caudal vein at 0, 15, 30, 60, and 120 minutes. FIG. 3 is a graph of results of an oral glucose tolerance test of a ginger extract and a microwave-processed ginger product.
Next, to test the efficacy of a single component of ginger, blood was collected from the caudal vein of mice that had been fasted for 12 hours, and the fasting blood glucose level was measured as the initial blood glucose level. Thereafter, experiments were conducted with a group administered with glucose (2 g/Kg) (control), a group administered with glucose and 6-gingerol (100 mg/kg), and a group administered with glucose and 6-shogaol (100 mg/kg). […]

[3] = through induction of cell defense mechanisms; cited from earlier work

Compound | Cell viability (%) (INS-1 cells [1]; 1 μM) | Cell viability (%) (INS-1 cells [1]; 2.5 μM) | Cell viability (%) (INS-1 cells [1]; 5 μM) | Stimulation index (SI) (INS-1 cells [2]; 1 μM) | Stimulation index (SI) (INS-1 cells [2]; 2.5 μM) | Stimulation index (SI) (INS-1 cells [2]; 5 μM) | toxicity against INS-1 cells (INS-1 cells [1]) | insulin secretion of INS-1 cells (INS-1 cells [2]) | increase in blood glucose level (ICR mice) | anticancer activity compared with [6]-gingerol [3]
Cc1ccc(S(=O)(=O)NC(=O)NN2CC3CCCC3C2)cc1 (stereo not shown) [Glyclazide, gliclazide, reference compound] | 99.7 ± 0.2% | 96.3 ± 0.9% | 91.1 ± 1.4% | 1.3 ± 0.0 | 1.9 ± 0.1 | 3.0 ± 0.1 | – | – | – | –
CCCCC[C@H](O)CC(=O)CCc1ccc(O)c(OC)c1 [[6]-gingerol] | 98.1 ± 2.7% | 98.7 ± 2.3% | 98.2 ± 3.5% | 2.4 ± 0.0 | 2.2 ± 0.1 | 2.3 ± 0.1 | not to exhibit toxicity | secreted insulin concentration-dependently | – | –
CCCCC/C=C/C(=O)CCc1ccc(O)c(OC)c1 [[6]-shogaol] | 101.1 ± 0.4% | 101.8 ± 0.7% | 101.2 ± 0.2% | 3.0 ± .0 | 3.5 ± 0.1 | 4.8 ± 0.0 | not to exhibit toxicity | secreted insulin concentration-dependently; also recorded: promote insulin secretion in INS-1 cells, as compared with other components | significantly reduced | –
CCCCCCC[C@H](O)CC(=O)CCc1ccc(O)c(OC)c1 [[8]-gingerol] | – | – | – | 1.1 ± 0.0 | 1.5 ± 0.0 | 2.1 ± 0.0 | – | secreted insulin concentration-dependently | – | –
CCCCCCC/C=C/C(=O)CCc1ccc(O)c(OC)c1 [[8]-shogaol] | 94.0 ± 2.6% | 96.3 ± 1.9% | 92.4 ± 1.7% | 1.3 ± 0.1 | 1.5 ± 0.1 | 1.8 ± 0.1 | not to exhibit toxicity | secreted insulin concentration-dependently | – | –
CCCCCCCCC[C@H](O)CC(=O)CCc1ccc(O)c(OC)c1 [[10]-gingerol] | 99.3 ± 1.6% | 100.6 ± 3.3% | 100.7 ± 3.5% | 1.7 ± 0.2 | 1.7 ± 0.1 | 1.5 ± 0.1 | not to exhibit toxicity | secreted insulin concentration-dependently | – | –
CCCCCCCCC/C=C/C(=O)CCc1ccc(O)c(OC)c1 [[10]-shogaol] | 101.9 ± 2.2% | 99.8 ± 3.9% | 99.6 ± 3.3% | 1.9 ± 0.0 | 1.4 ± 0.0 | 1.4 ± 0.1 | not to exhibit toxicity | secreted insulin concentration-dependently | – | –
shogaol | – | – | – | – | – | – | – | – | – | more than 10 times
